The values below come from ChEMBL document CHEMBL2163212, “Antivirals targeting influenza A virus” (J Med Chem, 2012).

In one assay the test system is Influenza A virus. Put plainly: Antiviral activity against Influenza A virus containing Matrix protein 2 V27A mutant by plaque reduction assay. It counts as functional, organism-based.
In another assay the target is Matrix protein 2 (Influenza A virus, UniProt P06821, V27A). Put plainly: Inhibition of Influenza A virus Matrix protein 2 V27A mutant.

As for `CN1CCC2(C1)C1CC3CC(C1)CC2C3` (configuration not stated) [SPIROAMANTADINE], the concentration for half-maximal inhibition (IC50) in the assay on Influenza A virus amounted to 1000 nM; on Matrix protein 2, 300 nM.
